In patent US5616557A, “Process for selectively inhibiting activity of endotoxin” (Wako Pure Chemical Industries, Ltd., priority 1993, dated 1997):

Tested on: E. coli 0128:B12 LPS
Assay: Limulus test of ET spiked plasma, Example 4
Type: biochemical
Conditions: 0.009 w/v % of Px B alone; ET 2 ng/ml, 80° C. 5 minutes (FIG. 4)
Procedure: To 0.1 ml of the LAL solution was added 0.1 ml of the aforesaid diluted plasma, and stirred, after which a time required for reducing the transmittance of the resulting mixture by 5% (hereinafter abbreviated as "Tg") was measured while maintaining the temperature at 37° C. The ET concentration in the diluted plasma was determined on the basis of the thus obtained Tg value by use of a calibration curve showing the relationship between ET concentration and Tg which had been previously obtained by carrying out the same measurement as described above except for using ET solutions having various known concentrations in place of the samples.
To 1.3 ml of normal human heparinized plasma was added 13 μl of ET solution having a predetermined concentration, and 100 μl of the resulting ET spiked plasma was diluted 10 times with 900 μl of distilled water for injection, each of aqueous surfactant solutions having predetermined concentrations, each of aqueous Px B solutions having predetermined concentrations, or each of aqueous Px B solutions having predetermined concentrations and containing 0.1 w/v % or 0.2 w/v % of the surfactant (polyoxyethylene glycol p-t-octylphenyl ether), respectively. […] The ET concentration in the diluted plasma thus obtained was measured in the same manner as in Example 1.

polymyxin B [Px B]
ET activity in plasma: completely inhibited
